Data as given in patent US6211244A, “Calcium receptor-active compounds” (priority 1995, dated 2001).
“And” between values parts separate entries of the source, which are not always exact repeats. Equal entries are not always repeated. Structures can show the parent of a compound that is named as a salt. Where two headings read alike, the source gives them in different places.

Target: T1, human calcium receptor (Homo sapiens, UniProt P41180, R990G)
T1 construct: expressed in transfected cells; host or cells: HEK 293
T1 sequence (P41180 20-1078 R990G): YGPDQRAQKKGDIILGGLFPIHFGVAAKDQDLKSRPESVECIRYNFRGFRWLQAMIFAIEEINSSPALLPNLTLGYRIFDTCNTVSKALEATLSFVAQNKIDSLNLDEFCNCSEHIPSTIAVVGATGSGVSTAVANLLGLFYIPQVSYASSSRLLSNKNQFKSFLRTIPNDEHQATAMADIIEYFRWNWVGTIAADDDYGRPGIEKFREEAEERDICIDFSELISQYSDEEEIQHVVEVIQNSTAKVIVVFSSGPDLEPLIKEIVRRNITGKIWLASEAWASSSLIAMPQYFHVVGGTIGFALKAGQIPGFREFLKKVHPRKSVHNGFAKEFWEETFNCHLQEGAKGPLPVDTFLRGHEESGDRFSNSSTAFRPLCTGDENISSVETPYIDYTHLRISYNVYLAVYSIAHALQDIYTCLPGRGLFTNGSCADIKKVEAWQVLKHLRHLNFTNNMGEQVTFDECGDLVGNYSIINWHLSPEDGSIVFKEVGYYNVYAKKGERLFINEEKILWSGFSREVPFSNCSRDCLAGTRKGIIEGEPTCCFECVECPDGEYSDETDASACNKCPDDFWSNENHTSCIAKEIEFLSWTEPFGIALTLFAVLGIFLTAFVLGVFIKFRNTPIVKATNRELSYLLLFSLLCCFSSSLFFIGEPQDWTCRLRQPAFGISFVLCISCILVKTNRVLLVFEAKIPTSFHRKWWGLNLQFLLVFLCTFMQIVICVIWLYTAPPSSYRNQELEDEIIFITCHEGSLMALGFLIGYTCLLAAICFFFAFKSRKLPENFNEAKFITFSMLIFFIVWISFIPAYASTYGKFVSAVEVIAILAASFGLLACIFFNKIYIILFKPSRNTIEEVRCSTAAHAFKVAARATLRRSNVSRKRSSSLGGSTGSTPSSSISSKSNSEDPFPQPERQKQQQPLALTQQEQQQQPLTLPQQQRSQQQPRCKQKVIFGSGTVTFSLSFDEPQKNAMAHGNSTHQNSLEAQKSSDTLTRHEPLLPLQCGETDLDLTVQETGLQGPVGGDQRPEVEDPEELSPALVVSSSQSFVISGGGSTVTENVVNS
Assay: increases in [Ca^2+ ]i in HEK-293 cells expressing the human calcium receptor (fura-2 loaded HEK 293/pHuPCaR4.0 cells), % activity
Format: cell-based

| Structure (SMILES) | % activity | % activity (33 ng/mL) | % activity (330 ng/mL) | % activity (3300 ng/mL) [%] |
| --- | --- | --- | --- | --- |
| CC(NC1CCc2ccccc2C1)c1ccccc1 (mixture of isomers) [Compound 4B] | 45 | 8% | – | – |
| CC(C=Cc1ccccc1)NC(C)c1ccccc1 (mixture of isomers) [Compound 5D] | – | 18% | 62% | – |
| CC(NC1CCc2ccccc21)c1cccc2ccccc12 (mixture of isomers) [Compound 9A] | – | 56% | 82% | – |
| COc1cccc(C(C)NC(C)c2ccc(C(C)(C)C)cc2)c1 (mixture of isomers) [Compound 13G] | – | 82% | 128% | 111 |
| CC(NC(C)c1ccc(C(C)(C)C)cc1)c1ccccc1 (mixture of isomers) [Compound 13H] | – | 36% | 48% | 88 |
| CC(NC(C)c1ccc2ccccc2c1)c1ccc(C(C)(C)C)cc1 (mixture of isomers) [Compound 13I] | – | 3% | 52% | 85 |
| CC(C)Cc1ccc(C(C)CNC(C)c2cccc3ccccc23)cc1 (mixture of isomers) [Compound 14A] | – | 10% | 78% | 98 |
| CC(O)c1ccc(CNC(C)c2cccc3ccccc23)cc1 (mixture of isomers) [Compound 17B] | – | 61% | 92% | – |
| CCC(NC(C)c1cccc2ccccc12)c1ccc(OC)cc1 (mixture of isomers) [Compound 17G] | – | 119% | 128% | 125 |
| Cc1cc(C(C)NC(C)c2cccc3ccccc23)ccc1OCc1ccccc1 (mixture of isomers) [Compound 25X] | – | 72% | 94% | 96 |
| COc1ccc(C(NC(C)c2cccc3ccccc23)C2CC2)cc1 (single isomer, unassigned) [Compound 17I] | – | 76% | 97% | 118 |
| COc1cccc(C(C)NCCC(C)c2ccc(Cl)cc2)c1 (stereo not drawn) [5B/5C, N-[3-methyl-3-(4-chlorophenyl)propyl]-1-(3-methoxyphenyl)ethylamine] | – | 20% | 65% | – |
| CC(NC(C)c1cc2ccccc2c2ccccc12)c1cccc2ccccc12 (stereo not drawn) [10S/10T] | – | 65% | 86% | – |
| CC(NCC1CCc2ccccc2C1)c1cccc2ccccc12 (stereo not drawn) [10W/10X] | – | 61% and 53% | 98% and 81% | – |
| COc1cccc([C@@H](C)NC(C)CCc2ccccc2Cl)c1 (stereo partly drawn) [21C = 4U] | – | 76% | 114% | 134 |
| CC(NCCCc1ccccc1)c1ccccc1 (stereo not drawn) [Compound 1D] | – | – | 53% | – |
| CC(NCCCC1CCCCC1)c1ccccc1 (stereo not drawn) [Compound 1T] | – | – | 76% | – |
| CC(NCCCc1ccccc1)c1c[nH]c2ccccc12 (stereo not drawn) [Compound 2Q] | – | 4% | 56% | – |
| COc1ccccc1C(C)NCCC(c1ccccc1)c1ccccc1 (stereo not drawn) [Compound 2S] | – | 29% | 67% | – |
| CC(NCCC(c1ccccc1)c1ccccc1)c1ccccc1Cl (stereo not drawn) [Compound 2X] | 15 | – | 66% | – |
| CC(NCCC(c1ccccc1)c1ccccc1)c1cccc(Cl)c1 (stereo not drawn) [Compound 2Y] | – | 10% | 59% | – |
| CC(NCCC(c1ccccc1)c1ccccc1)c1ccccc1F (stereo not drawn) [Compound 3A] | – | 7% | 41% | – |
| CC(NCCC(c1ccccc1)c1ccccc1)c1cccc(F)c1 (stereo not drawn) [Compound 3B] | 15 | – | 52% | – |
| CC(NCCC(c1ccccc1)c1ccccc1)c1ccccc1C(F)(F)F (stereo not drawn) [Compound 3D] | 45 | 4% | – | – |
| CC(NCCCc1ccccc1)c1ccccc1 (stereo not drawn) [Compound 3H] | – | – | 84% | – |

| Structure (SMILES) | % activity | % activity (33 ng/mL) | % activity (330 ng/mL) | % activity (3300 ng/mL) [%] |
| --- | --- | --- | --- | --- |
| Cc1ccccc1C(C)NCCC(c1ccccc1)c1ccccc1 (stereo not drawn) [Compound 3L] | – | 28% | 81% | – |
| Cc1cccc(C(C)NCCC(c2ccccc2)c2ccccc2)c1 (stereo not drawn) [Compound 3M] | – | 19% | 64% | – |
| CC(NCCC(c1ccccc1)c1ccccc1)c1ccc(O)cc1 (stereo not drawn) [Compound 3R] | 45 | 2% | – | – |
| CC(NCCC(c1ccccc1)c1ccccc1)c1cccc2ccccc12 (stereo not drawn) [Compound 3U, N-(3,3-diphenylpropyl)-(1-naphthyl)ethylamine] | – | 57% | 89% | – |
| COc1cccc(C(C)NCc2cccc3ccccc23)c1 (stereo not drawn) [Compound 3V] | – | 14% | 56% | – |
| CC(N[C@H](C)c1ccccc1)c1cccc2ccccc12 (stereo partly drawn) [Compound 4G, N-[1-(1-naphthyl)ethyl)-1-phenylethylamine] | – | 46% | 83% | – |
| CC(NCc1cccc2ccccc12)c1ccccc1 (stereo not drawn) [Compound 4I] | – | 9% | 40% | – |
| CC(NCc1ccc2ccccc2c1)c1ccccc1 (stereo not drawn) [Compound 4J] | – | 8% | 47% | – |
| COc1cccc(C(C)NCCCc2ccccc2F)c1 (stereo not drawn) [Compound 4M] | – | 34% | 68% | – |
| COc1cccc([C@@H](C)NCCCc2ccc(F)cc2)c1 [Compound 4P] | – | – | 81% and 61% | – |
| COc1cccc(C(C)NCCCc2ccccc2C(F)(F)F)c1 (stereo not drawn) [Compound 4V] | – | 59% | 93% | – |
| CC(COc1ccccc1)NC(C)c1ccccc1 (stereo not drawn) [Compound 5G] | – | 16% | 58% | – |
| C[C@@H](NCC=C(c1ccccc1)c1ccccc1)c1ccccc1 [Compound 5L] | – | 16% | 60% | – |
| CC(NCC=Cc1ccccc1[N+](=O)[O-])c1ccccc1 (stereo not drawn) [Compound 5M] | – | 21% | 73% | – |
| CCOc1cccc([C@@H](C)NCCCc2ccccc2)c1 [Compound 6R, (R)-N-(3-phenylpropyl)-1-(3-ethoxyphenyl)ethylamine] | – | 52% | 94% | – |
| CCOc1cccc([C@@H](C)NCCCc2ccccc2Cl)c1 [Compound 6T, (R)-N-[3-(2-chlorophenyl)propyl]-1-(3-ethoxyphenyl)ethylamine] | – | 78% | 129% | 123 |
| COc1cccc([C@@H](C)NCCCc2cccc(Cl)c2)c1 [Compound 6X] | – | 52% | 84% | – |
| C[C@@H](NCCCc1ccccc1Cl)c1cccc(OC(F)(F)F)c1 [Compound 7U] | – | – | 49% | – |
| CC(=O)c1cccc(C(C)NCCCc2ccccc2)c1 (stereo not drawn) [Compound 7W] | – | – | 76% | – |
| COc1cccc(C(C)NCCCC2CCCCC2)c1 (stereo not drawn) [Compound 7X] | – | – | 85% | – |
| COc1cc(OC)cc(C(C)NCCCc2ccccc2)c1 (stereo not drawn) [Compound 8A] | – | – | 54% | – |
| CSc1cccc(C(C)NCCCc2ccccc2)c1 (stereo not drawn) [Compound 8J, N-(3-phenylpropyl)-1-(3-thiomethylphenyl)ethylamine hydrochloride] | – | 77% | 104% | – |
| CSc1cccc(C(C)NCCCc2ccccc2Cl)c1 (stereo not drawn) [Compound 8K] | – | 81% | 98% | – |
| COc1cccc(C(C)NCCCc2cc(OC)c(OC)c(OC)c2)c1 (stereo not drawn) [Compound 8S] | – | 42% | 73% | – |
